According to US20030144234A1, “Methods for the treatment of chronic pain and compositions therefor” (priority 2001, published 2003):
Starred links: 1 amine or outer side, 2 acyl side, 3 side chain; linkers in the order of their positions; H or OH if unused. Non-standard residues stand in square brackets, D forms with d. Residues, ends and D or L forms follow the SMILES beside them. *: point of attachment. hPhe = N[C@@H](CCc1ccccc1)C(=O)O; Morpholide = C1CN(*)CCO1; CO = O=C([*:1])[*:2]; CH2F = FC*

Columns and labels:
cathepsin S [1] = molecular target: T1, cathepsin S (Homo sapiens, UniProt P25774); experiment: Cathepsin S inhibitory activity (stated in words); type: biochemical
T1 sequence (P25774 115-331): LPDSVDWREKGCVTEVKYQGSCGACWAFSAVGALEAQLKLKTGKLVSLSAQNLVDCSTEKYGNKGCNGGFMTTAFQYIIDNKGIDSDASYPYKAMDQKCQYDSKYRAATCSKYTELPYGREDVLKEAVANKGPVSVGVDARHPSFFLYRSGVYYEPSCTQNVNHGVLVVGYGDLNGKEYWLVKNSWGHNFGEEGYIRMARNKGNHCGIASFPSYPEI

cathepsin K = molecular target: T2, cathepsin K (Homo sapiens, UniProt P43235); experiment: Cathepsin K inhibitory activity (stated in words); type: biochemical
T2 sequence (P43235 115-329): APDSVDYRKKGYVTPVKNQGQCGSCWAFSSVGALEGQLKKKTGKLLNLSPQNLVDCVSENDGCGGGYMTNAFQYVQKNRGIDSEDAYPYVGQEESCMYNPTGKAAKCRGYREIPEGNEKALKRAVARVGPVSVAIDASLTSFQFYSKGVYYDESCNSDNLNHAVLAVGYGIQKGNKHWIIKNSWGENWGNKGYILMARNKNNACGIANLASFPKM

[2] = tested on: Seltzer model of chronic neuropathic pain; experiment: Established mechanical hyperalgesia in the Seltzer model of chronic neuropathic pain, single oral dose; type: in vivo, Wistar rats; set-up: effect on established mechanical hyperalgesia: unit not given here
[3] = tested on: CCI model of chronic neuropathic pain; experiment: Mechanical hyperalgesia in the CCI model, twice daily oral dosing throughout development of hyperalgesia; type: in vivo, Wistar rats
From the text: In the Chronic Constriction Injury (CCl) model (Bennett, G. J. and Xie, Y. K. Pain (1988) 33: 87-107) rats are anaesthetised and a small incision is made mid-way up one thigh (usually the left) to expose the sciatic nerve. The nerve is cleared of surrounding connective tissue and four ligatures of 4/0 chromic gut are tied loosely around the nerve with approximately 1 mm between each, so that the ligatures just barely constrict the surface of the nerve. The wound is closed with sutures and clips as described above. In sham animals the sciatic nerve is exposed but not ligated and the wound closed as in nonsham animals. In all chronic pain models (inflammatory and neuropathic) mechanical hyperalgesia is assessed by measuring paw withdrawal thresholds of both hindpaws to an increasing pressure stimulus using an Analgesymeter (Ugo-Basile, Milan). Mechanical allodynia is assessed by measuring withdrawal thresholds to non-noxious mechanical stimuli applied with von Frey hairs to the plantar surface of both hindpaws. Thermal hyperalgesia is assessed by measuring withdrawal latencies to a noxious thermal stimulus applied to the underside of each hindpaw. With all models, mechanical hyperalgesia and allodynia and thermal hyperalgesia develop within 1-3 days following surgery and persist for at least 50 days. For the assays described herein, drugs may be applied before and after surgery to assess their effect on the development of hyperalgesia, particularly approximately 14 days following surgery, to determine their ability to reverse established hyperalgesia. In the experiments disclosed herein, Wistar rats (male) are employed in the pain models described above. Rats weigh approximately 120-140 grams at the time of surgery. All surgery is performed under enflurane/O2 inhalation anaesthesia. In all cases the wound is closed after the procedure and the animal allowed to recover. In all pain models employed, after a few days in all but the sham operated animals, a marked mechanical and thermal hyperalgesia and allodynia develops in which there is a lowering of pain threshold and an enhanced reflex withdrawal response of the hind-paw to touch, pressure or thermal stimuli. […] In the majority of animals the toes of the affected hind paw are held together and the foot turned slightly to one side; in some rats the toes are also curled under. The gait of the ligated rats varies, but limping is uncommon. […] The rats tend to be very sensitive to touch and may vocalise. Otherwise the general health an condition of the rats is good. Data disclosed herein indicate that compound B can reverse the mechanical hyperalgesia induced in the CCl model of neuropathic pain in a dose dependent manner with a D50 in the range 30-100 mg/kg, with up to 70% reversal at 100 mg/kg at 1 hour post dosing. […] In the twice daily study, paw withdrawal thresholds were measured prior to surgery and then daily 3 hours following the second oral dosing with compound B. The last dose was given on day 13. Each time point in Table 3 represents data from 6 animals per group. Vehicle control: PEG/methyl cellulose (0.5%)+Tween 80 (0.25%)(20:80), 1 ml p.o.

cathepsin S [4] = molecular target: T1, cathepsin S; details: per U.S. Pat. No. 4,518,528; cited from earlier work
[5] = tested on: CCI model of chronic neuropathic pain; experiment: Established mechanical hyperalgesia in the CCI model of chronic neuropathic pain, single oral dose (paw withdrawal threshold); type: in vivo, Wistar rats; details: for % Reversal of Predose Hyperalgesia: CCI model day 14
From the text: In the Chronic Constriction Injury (CCl) model (Bennett, G. J. and Xie, Y. K. Pain (1988) 33: 87-107) rats are anaesthetised and a small incision is made mid-way up one thigh (usually the left) to expose the sciatic nerve. The nerve is cleared of surrounding connective tissue and four ligatures of 4/0 chromic gut are tied loosely around the nerve with approximately 1 mm between each, so that the ligatures just barely constrict the surface of the nerve. The wound is closed with sutures and clips as described above. In sham animals the sciatic nerve is exposed but not ligated and the wound closed as in nonsham animals. In all chronic pain models (inflammatory and neuropathic) mechanical hyperalgesia is assessed by measuring paw withdrawal thresholds of both hindpaws to an increasing pressure stimulus using an Analgesymeter (Ugo-Basile, Milan). Mechanical allodynia is assessed by measuring withdrawal thresholds to non-noxious mechanical stimuli applied with von Frey hairs to the plantar surface of both hindpaws. Thermal hyperalgesia is assessed by measuring withdrawal latencies to a noxious thermal stimulus applied to the underside of each hindpaw. With all models, mechanical hyperalgesia and allodynia and thermal hyperalgesia develop within 1-3 days following surgery and persist for at least 50 days. For the assays described herein, drugs may be applied before and after surgery to assess their effect on the development of hyperalgesia, particularly approximately 14 days following surgery, to determine their ability to reverse established hyperalgesia. The percentage reversal of hyperalgesia is calculated as follows: [formula] In the experiments disclosed herein, Wistar rats (male) are employed in the pain models described above. Rats weigh approximately 120-140 grams at the time of surgery. All surgery is performed under enflurane/O2 inhalation anaesthesia. In all cases the wound is closed after the procedure and the animal allowed to recover. In all pain models employed, after a few days in all but the sham operated animals, a marked mechanical and thermal hyperalgesia and allodynia develops in which there is a lowering of pain threshold and an enhanced reflex withdrawal response of the hind-paw to touch, pressure or thermal stimuli. […] In the majority of animals the toes of the affected hind paw are held together and the foot turned slightly to one side; in some rats the toes are also curled under. The gait of the ligated rats varies, but limping is uncommon. […] The rats tend to be very sensitive to touch and may vocalise. Otherwise the general health an condition of the rats is good. Rats are subjected to the surgical procedures according to the CCl chronic pain model described above. Paw withdrawal thresholds are measured prior to surgery, 14 days later when hyperalgesia is established and then at 1, 3 and 6 hours following a single oral gavage dose of compound B. Results are provided in Table 2, below. Each time point represents data from 6 animals per group. Vehicle control: PEG/methyl cellulose (0.5%)+Tween 80 (0.25%)(20:80), 1 ml p.o.

[6] = tested on: FCA-induced model of chronic inflammatory pain; experiment: Mechanical hyperalgesia in the FCA-induced model of chronic inflammatory pain; type: in vivo, rats; details: 100 mg/kg p.o., 24 hours after FCA induction, data not shown
Description: The Complete Freund's Adjuvant-induced mechanical hyperalgesia may be used as a model of chronic inflammatory pain (Stein, C. et al. Pharmacol. Biochem. Behav. (1988) 31:445-451). In this model, typically a male Sprague-Dawley orWistar rat (200-250 g) receives an intraplantar injection of 25 μl complete Freund's adjuvant into one hind paw. A marked inflammation occurs in this hind paw. Drugs are generally administered for evaluation of efficacy, 24 hours after the inflammatory insult, when mechanical hyperalgesia is considered fully established. In all chronic pain models (inflammatory and neuropathic) mechanical hyperalgesia is assessed by measuring paw withdrawal thresholds of both hindpaws to an increasing pressure stimulus using an Analgesymeter (Ugo-Basile, Milan). Mechanical allodynia is assessed by measuring withdrawal thresholds to non-noxious mechanical stimuli applied with von Frey hairs to the plantar surface of both hindpaws. Thermal hyperalgesia is assessed by measuring withdrawal latencies to a noxious thermal stimulus applied to the underside of each hindpaw. With all models, mechanical hyperalgesia and allodynia and thermal hyperalgesia develop within 1-3 days following surgery and persist for at least 50 days. […] The percentage reversal of hyperalgesia is calculated as follows: [formula] […]

SMILES: CC(C)(C)Cn1c(Cc2cccs2)cc2cnc(C#N)nc21 [Compound A, 7-(2,2-Dimethyl-propyl)-6-thiophen-2-ylmethyl-7.H.-pyrrolo[2,3-.d.]pyrimidine-2-carbonitrile]
- cathepsin S inhibitory activity (in words) (cathepsin S [1]): mixed cathepsin S/K inhibitory activity
- cathepsin K inhibitory activity (in words) (cathepsin K): mixed cathepsin S/K inhibitory activity
- effect on established mechanical hyperalgesia ([2]; Cmpd A 3 mg/kg single oral dose, 1 hr): 1.32
- effect on established mechanical hyperalgesia ([2]; Cmpd A 3 mg/kg single oral dose, 3 hrs): 3.64
- effect on established mechanical hyperalgesia ([2]; Cmpd A 3 mg/kg single oral dose, 6 hrs): −1.06
- effect on established mechanical hyperalgesia ([2]; Cmpd A 10 mg/kg single oral dose, 1 hr): 8.63
- effect on established mechanical hyperalgesia ([2]; Cmpd A 10 mg/kg single oral dose, 3 hrs): 52.94
- effect on established mechanical hyperalgesia ([2]; Cmpd A 10 mg/kg single oral dose, 6 hrs): 17.63
- effect on established mechanical hyperalgesia ([2]; Cmpd A 30 mg/kg single oral dose, 1 hr): 31.15
- effect on established mechanical hyperalgesia ([2]; Cmpd A 30 mg/kg single oral dose, 3 hrs): 68.32
- effect on established mechanical hyperalgesia ([2]; Cmpd A 30 mg/kg single oral dose, 6 hrs): 23.05
- D50 for reversal of hyperalgesia ([2]; Seltzer model, single oral dose): 3 to 10 mg/kg

SMILES: O=C(CF)[C@H](CCc1ccccc1)NC(=O)[C@H](Cc1ccccc1)NC(=O)N1CCOCC1 [Compound B, 3-[(4-morpholinylcarbonyl)-phenylalanylamido]-1-fluoro-5-phenyl-2-pentanone] ({Morpholide-CO}-Phe-[hPhe]-CH2F)
- Mean Paw pressure withdrawal threshold ([3]; 30 mg/kg orally twice daily, day 1 post surgery, 3 hours after second dose): 100.00 g
- Mean Paw pressure withdrawal threshold ([3]; 30 mg/kg orally twice daily, day 2 post surgery, 3 hours after second dose): 70.83 g
- Mean Paw pressure withdrawal threshold ([3]; 30 mg/kg orally twice daily, day 3 post surgery, 3 hours after second dose): 79.17 g
- Mean Paw pressure withdrawal threshold ([3]; 30 mg/kg orally twice daily, day 4 post surgery, 3 hours after second dose): 80.00 g
- Mean Paw pressure withdrawal threshold ([3]; 30 mg/kg orally twice daily, day 6 post surgery, 3 hours after second dose): 80.80 g
- Mean Paw pressure withdrawal threshold ([3]; 30 mg/kg orally twice daily, day 8 post surgery, 3 hours after second dose): 80.00 g
- Mean Paw pressure withdrawal threshold ([3]; 30 mg/kg orally twice daily, day 10 post surgery, 3 hours after second dose): 77.50 g
- Mean Paw pressure withdrawal threshold ([3]; 30 mg/kg orally twice daily, day 13 post surgery (last dose), 3 hours after second dose): 79.17 g
- reversing mechanical hyperalgesia (in words) ([3]; CCI model, 30 mg/kg orally, twice daily throughout development of hyperalgesia): acutely effective
- Mean Paw pressure withdrawal threshold ([3]; day 15 post surgery, after end of 30 mg/kg twice daily treatment (last dose day 13)): 60.83 g
- inhibition of cathepsin S in vitro (in words) (cathepsin S [4]): known to inhibit
- % Reversal of Predose Hyperalgesia ([5]; 10 mg/kg single oral dose, 1 hr post dose): 26.16%
- % Reversal of Predose Hyperalgesia ([5]; 10 mg/kg single oral dose, 3 hrs post dose): 38.19%
- % Reversal of Predose Hyperalgesia ([5]; 10 mg/kg single oral dose, 6 hrs post dose): 18.29%
- % Reversal of Predose Hyperalgesia ([5]; 30 mg/kg single oral dose, 1 hr post dose): 40.97%
- % Reversal of Predose Hyperalgesia ([5]; 30 mg/kg single oral dose, 3 hrs post dose): 38.89%
- % Reversal of Predose Hyperalgesia ([5]; 30 mg/kg single oral dose, 6 hrs post dose): 13.89%
- % Reversal of Predose Hyperalgesia ([5]; 100 mg/kg single oral dose, 1 hr post dose): 76.49%
- % Reversal of Predose Hyperalgesia ([5]; 100 mg/kg single oral dose, 3 hrs post dose): 55.06%
- % Reversal of Predose Hyperalgesia ([5]; 100 mg/kg single oral dose, 6 hrs post dose): 29.76%
- reversal of mechanical hyperalgesia ([5]; CCI model, 100 mg/kg, 1 hour post dosing): up to 70%
- D50 for reversal of mechanical hyperalgesia ([5]; CCI model, single oral dose): 30 to 100 mg/kg
- maximal reversal of mechanical hyperalgesia [6]: 46%
- effect on established mechanical hyperalgesia ([2]; Cmpd B 30 mg/kg single oral dose, 1 hr): 33.47
- effect on established mechanical hyperalgesia ([2]; Cmpd B 30 mg/kg single oral dose, 3 hrs): 41.57
- effect on established mechanical hyperalgesia ([2]; Cmpd B 30 mg/kg single oral dose, 6 hrs): 11.97
